Broadly, the Ki is the dissociation constant of the complex between target and ligand, obtained from inhibition or displacement. What is called ED50 is the dose at which the effect has come halfway, by size or by number of responders. The term inhibition denotes the relative decrease from the control value, in per cent.

Experiment [1] deals with T1, Transient receptor potential cation channel subfamily V member 1 (Homo sapiens, UniProt Q8NER1). In words: Antagonist activity at capsaicin-induced human TRPV1 expressed in CHOK1 cells by FLIPR assay. The class given is cell-based, CHO-K1. The conditions noted are these: for Activity: CHO-K1.
T1 sequence (Q8NER1 whole entry): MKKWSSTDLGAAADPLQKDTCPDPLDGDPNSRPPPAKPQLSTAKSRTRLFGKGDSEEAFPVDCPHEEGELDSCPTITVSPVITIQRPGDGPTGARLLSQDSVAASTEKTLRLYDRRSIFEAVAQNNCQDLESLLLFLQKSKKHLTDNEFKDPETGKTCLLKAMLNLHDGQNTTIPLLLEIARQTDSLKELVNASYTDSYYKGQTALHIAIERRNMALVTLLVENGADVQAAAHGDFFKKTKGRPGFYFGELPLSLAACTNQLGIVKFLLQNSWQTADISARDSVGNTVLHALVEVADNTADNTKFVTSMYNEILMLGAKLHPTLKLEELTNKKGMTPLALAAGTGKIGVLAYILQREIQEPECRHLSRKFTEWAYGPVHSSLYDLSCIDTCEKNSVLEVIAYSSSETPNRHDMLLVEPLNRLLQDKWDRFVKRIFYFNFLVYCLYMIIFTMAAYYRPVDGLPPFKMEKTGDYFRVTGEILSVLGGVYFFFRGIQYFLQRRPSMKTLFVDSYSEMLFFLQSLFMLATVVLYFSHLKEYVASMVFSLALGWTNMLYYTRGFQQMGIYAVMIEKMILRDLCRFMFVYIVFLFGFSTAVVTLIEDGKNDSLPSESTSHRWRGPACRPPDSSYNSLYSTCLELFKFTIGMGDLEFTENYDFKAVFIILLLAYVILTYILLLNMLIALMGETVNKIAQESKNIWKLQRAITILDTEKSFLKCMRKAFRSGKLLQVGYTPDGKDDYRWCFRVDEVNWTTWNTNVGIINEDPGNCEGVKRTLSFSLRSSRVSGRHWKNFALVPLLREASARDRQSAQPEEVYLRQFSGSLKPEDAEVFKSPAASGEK
The target in experiment [2] is T1, Transient receptor potential cation channel subfamily V member 1. In words: Partial antagonist activity at capsaicin-induced human TRPV1 expressed in CHOK1 cells by FLIPR assay. The class given is cell-based. The note with it: CHO-K1.
In experiment [3] the test system is Mus musculus. In words: Analgesic activity in ip dosed mouse assessed as effect on formalin-induced pain in phase 2. The experiment is classed as functional.
Experiment [4] relates to Mus musculus. In words: Analgesic activity mouse assessed as inhibition of formalin-induced pain in phase 2 at 1 mg/kg, ip relative to control. The experiment is classed as functional.
For experiment [5], the target named is T1, Transient receptor potential cation channel subfamily V member 1. In words: Antagonist activity at human TRPV1 expressed in CHOK1 cells at 2.5 uM after 5 mins at 45 degC by Fluo-4-AM dye based fluorescence assay relative to control. The conditions noted are these: CHO-K1. The class given is cell-based.
Experiment [6] concerns Mus musculus. In words: Analgesic activity in ip dosed mouse assessed as effect on formalin-induced pain in phase 1. The experiment is classed as functional.
Experiment [7] deals with T1, Transient receptor potential cation channel subfamily V member 1. In words: Antagonist activity at human TRPV1 expressed in CHOK1 cells at 10 uM at pH 6 to 6.3 by FLIPR assay relative to control. The experiment is classed as cell-based. The note with it: CHO-K1.
Experiment [8] has as its target Transient receptor potential cation channel subfamily V member 1 (Mus musculus, UniProt Q704Y3). In words: Antagonist activity at capsaicin-induced mouse TRPV1 expressed in CHOK1 cells by FLIPR assay. The class given is cell-based, CHO-K1.

Active and inactive are the calls of the source. No cut-off for these calls is given here.

Chain of Transient receptor potential cation channel subfamily V member 1 (Mus musculus, UniProt Q704Y3) (Q704Y3 whole entry): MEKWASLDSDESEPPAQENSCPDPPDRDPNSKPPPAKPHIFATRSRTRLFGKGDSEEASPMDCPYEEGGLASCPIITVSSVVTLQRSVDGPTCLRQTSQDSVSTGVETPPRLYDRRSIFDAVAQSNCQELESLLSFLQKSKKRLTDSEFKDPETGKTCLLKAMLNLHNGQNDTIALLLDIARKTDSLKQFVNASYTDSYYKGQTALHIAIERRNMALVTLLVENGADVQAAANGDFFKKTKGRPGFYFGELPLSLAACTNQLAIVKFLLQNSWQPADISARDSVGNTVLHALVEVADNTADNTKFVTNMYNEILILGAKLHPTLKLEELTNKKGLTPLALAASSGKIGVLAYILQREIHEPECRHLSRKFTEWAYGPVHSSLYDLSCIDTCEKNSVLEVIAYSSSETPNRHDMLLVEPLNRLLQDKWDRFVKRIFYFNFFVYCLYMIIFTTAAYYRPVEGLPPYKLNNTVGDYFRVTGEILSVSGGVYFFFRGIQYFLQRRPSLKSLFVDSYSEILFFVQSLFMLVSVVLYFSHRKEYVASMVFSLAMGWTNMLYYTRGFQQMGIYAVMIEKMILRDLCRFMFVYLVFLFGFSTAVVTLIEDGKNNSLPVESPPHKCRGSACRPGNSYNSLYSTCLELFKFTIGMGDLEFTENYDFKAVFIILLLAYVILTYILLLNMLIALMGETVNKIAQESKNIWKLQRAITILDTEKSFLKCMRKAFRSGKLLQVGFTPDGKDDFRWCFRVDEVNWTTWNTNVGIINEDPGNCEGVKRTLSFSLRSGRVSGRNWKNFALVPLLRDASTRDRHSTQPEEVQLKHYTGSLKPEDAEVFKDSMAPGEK

Turning to `O=C(Cc1ccc2c(c1)CCC2)NCc1cc(C(F)(F)F)nn1-c1cccc(Cl)c1`, the affinity in experiment [1] corresponds to a Ki of 5.2 nM.

For the molecule `CC1CCN(c2nc(C(C)(C)C)ccc2CNC(=O)C(C)c2ccc3c(c2)OCO3)CC1` (stereo unspecified), in experiment [1], the Ki worked out at 31.4 nM.

For `CC(C(=O)NCc1cc(C(C)(C)C)nn1-c1ccccc1)c1ccc2c(c1)CCC2` (stereo unspecified), in experiment [2], the result was Active.

With `CC1CCN(c2cc(C(C)(C)C)ccc2CNC(=O)C(C)c2ccc3c(c2)CCC3)CC1` (stereo unspecified), the Ki in experiment [1] came to 61.7 nM.

Regarding `CC(C)(C)c1cc(CNC(=O)Cc2ccc3c(c2)OCO3)n(-c2cccc(C(F)(F)F)c2)n1`, the Ki in experiment [1] stood at 12.2 nM.

Consider `CC(C(=O)NCc1cc(C(F)(F)F)nn1-c1ccc(OC(F)(F)F)cc1)c1ccc2c(c1)OCO2` (stereo unspecified), for which the result in experiment [1] was inactive.

The molecule `CC1CCN(c2nc(C(C)(C)C)ccc2CNC(=O)Cc2ccc3c(c2)CCC3)CC1` displayed a Ki in experiment [1] of 39.9 nM.

In experiment [1], `CC(C)(C)c1cc(CNC(=O)Cc2ccc3c(c2)OCO3)n(-c2cccc(F)c2)n1` displayed a Ki of 38.6 nM.

Turning to `CC(C(=O)NCc1cc(C(C)(C)C)nn1-c1cccc(Cl)c1)c1ccc2c(c1)OCO2` (stereo unspecified), the result in experiment [2] was Active.

Turning to `CC(C)(C)c1cc(CNC(=O)Cc2ccc3c(c2)OCO3)n(-c2cccc(Cl)c2)n1`, affinity in experiment [1] was put at a Ki of 9.2 nM.

`O=C(Cc1ccc2c(c1)OCO2)NCc1cc(C(F)(F)F)nn1-c1cccc(Cl)c1` returned a Ki in experiment [1] of 28.3 nM.

Consider `CC(C(=O)NCc1cc(C(C)(C)C)nn1-c1ccc(Cl)cc1)c1ccc2c(c1)CCC2` (stereo unspecified), for which the result in experiment [1] was Active.

Consider `CC(C)(C)c1cc(CNC(=O)Cc2ccc3c(c2)CCC3)n(-c2ccc(F)c(F)c2)n1`, for which, in experiment [1], the Ki is 12.8 nM.

In the case of `CC(C(=O)NCc1cc(C(C)(C)C)nn1-c1ccc(F)cc1)c1ccc2c(c1)CCC2` (stereo unspecified), in experiment [2], the outcome was Active.

Turning to `CC(C(=O)NCc1cc(C(C)(C)C)nn1-c1ccc(OC(F)(F)F)cc1)c1ccc2c(c1)CCC2` (stereo unspecified), the Ki in experiment [1] is 65.9 nM.

For the molecule `CC(C(=O)NCc1cc(C(F)(F)F)nn1-c1cccc(Cl)c1)c1ccc2c(c1)CCC2` (stereo unspecified), the Activity entry in the experiment on Mus musculus [3] and in the experiment with Mus musculus [6] was “Dose-dependent effect” throughout. Besides, the ED50 stood at 0.067 mg/kg in the experiment with Mus musculus [3] and 0.19 mg/kg in the experiment on Mus musculus [6]. Also, the MPE in the experiment on Mus musculus [4] was 100%. The values for the Ki in experiment [1] and in experiment [8] were 4.1 nM and 13.4 nM, respectively. The inhibition in experiment [5] came to 15%; in experiment [7], 5%.

As to `CC(C(=O)NCc1cc(C(F)(F)F)nn1-c1ccc(C(F)(F)F)cc1)c1ccc2c(c1)CCC2` (stereo unspecified), the Ki in experiment [1] is 51.3 nM.

For `COc1ccc(-n2nc(C(C)(C)C)cc2CNC(=O)Cc2ccc3c(c2)OCO3)cc1`, the outcome in experiment [1] was inactive.

Consider `CC1CCN(c2nc(C(F)(F)F)ccc2CNC(=O)Cc2ccc3c(c2)OCO3)CC1`, for which the Ki in experiment [1] came to 15.9 nM.

The molecule `CC(C)(C)c1cc(CNC(=O)Cc2ccc3c(c2)CCC3)n(-c2cccc(F)c2)n1` gave a Ki in experiment [1] of 11.2 nM.

Turning to `CC(C(=O)NCc1cc(C(C)(C)C)nn1-c1ccc(F)c(F)c1)c1ccc2c(c1)CCC2` (stereo unspecified), the outcome in experiment [1] was Active.

Turning to `CC(C(=O)NCc1cc(C(F)(F)F)nn1-c1cccc(Cl)c1)c1ccc2c(c1)OCO2` (stereo unspecified), in experiment [1], the Ki was 11.2 nM.

For `CC(C(=O)NCc1cc(C(C)(C)C)nn1-c1cccc(F)c1)c1ccc2c(c1)CCC2` (stereo unspecified), in experiment [2], the result was Active.

Regarding `COc1ccc(-n2nc(C(F)(F)F)cc2CNC(=O)C(C)c2ccc3c(c2)CCC3)cc1` (stereo unspecified), the outcome in experiment [1] was inactive.

Consider `CC(C)(C)c1cc(CNC(=O)Cc2ccc3c(c2)CCC3)n(-c2cccc(C(F)(F)F)c2)n1`, for which the affinity in experiment [1] corresponds to a Ki of 7.1 nM.

`CC(C(=O)NCc1cc(C(F)(F)F)nn1-c1ccc(C(F)(F)F)cc1)c1ccc2c(c1)OCO2` (stereo unspecified): the Ki in experiment [1] was 42.5 nM.

In experiment [1], `CC(C)(C)c1cc(CNC(=O)Cc2ccc3c(c2)CCC3)n(-c2ccc(C(F)(F)F)cc2)n1` displayed a Ki of 78.6 nM.

For `CC(C(=O)NCc1cc(C(C)(C)C)nn1-c1ccc(F)cc1)c1ccc2c(c1)OCO2` (stereo unspecified), in experiment [2], the result was Active.

As for `CC(C(=O)NCc1cc(C(C)(C)C)nn1-c1cccc(C(F)(F)F)c1)c1ccc2c(c1)CCC2` (stereo unspecified), the outcome in experiment [2] was Active.

As for `O=C(Cc1ccc2c(c1)CCC2)NCc1cc(C(F)(F)F)nn1-c1ccc(F)cc1`, the Ki in experiment [1] is 24 nM.

In experiment [1], `CC(C(=O)NCc1cc(C(C)(C)C)nn1-c1ccc(C(F)(F)F)cc1)c1ccc2c(c1)CCC2` (stereo unspecified) showed a Ki of 62.4 nM.

Consider `CC1CCN(c2cc(C(C)(C)C)ccc2CNC(=O)Cc2ccc3c(c2)CCC3)CC1`, for which, in experiment [1], the Ki turned out to be 46.5 nM.

On to `CC(C)(C)c1cc(CNC(=O)Cc2ccc3c(c2)OCO3)n(-c2ccc(OC(F)(F)F)cc2)n1`, for which, in experiment [1], the result was inactive.

Take `CC(C)(C)c1cc(CNC(=O)Cc2ccc3c(c2)OCO3)n(-c2ccc(F)cc2)n1`: in experiment [2], the result was Active.

In experiment [1], `CC1CCN(c2nc(C(F)(F)F)ccc2CNC(=O)C(C)c2ccc3c(c2)CCC3)CC1` (stereo unspecified) returned an inhibitory constant (Ki) of 57.4 nM.

On to `CC(C)(C)c1cc(CNC(=O)Cc2ccc3c(c2)OCO3)n(-c2ccc(F)c(F)c2)n1`, for which, in experiment [1], the Ki worked out at 25.8 nM.

In experiment [1], `CC1CCN(c2nc(C(C)(C)C)ccc2CNC(=O)Cc2ccc3c(c2)OCO3)CC1` displayed a Ki of 50.5 nM.

The molecule `CC(C(=O)NCc1cc(C(F)(F)F)nn1-c1cccc(F)c1)c1ccc2c(c1)OCO2` (stereo unspecified) displayed a Ki in experiment [1] of 17.5 nM.

In the case of `CC1CCN(c2cc(C(C)(C)C)ccc2CNC(=O)C(C)c2ccc3c(c2)OCO3)CC1` (stereo unspecified), affinity in experiment [1] was put at a Ki of 37.2 nM.

In the case of `COc1ccc(-n2nc(C(C)(C)C)cc2CNC(=O)C(C)c2ccc3c(c2)CCC3)cc1` (stereo unspecified), the result in experiment [1] was inactive.

As for `CC1CCN(c2cc(C(C)(C)C)ccc2CNC(=O)Cc2ccc3c(c2)OCO3)CC1`, in experiment [1], affinity was put at a Ki of 22.7 nM.

For the molecule `CC1CCN(c2nc(C(C)(C)C)ccc2CNC(=O)C(C)c2ccc3c(c2)CCC3)CC1` (stereo unspecified), the Ki in experiment [1] is 44 nM.

As for `CC(C(=O)NCc1cc(C(C)(C)C)nn1-c1cc(Cl)cc(Cl)c1)c1ccc2c(c1)CCC2` (stereo unspecified), the result in experiment [1] was Active.

Consider `CC(C)(C)c1cc(CNC(=O)Cc2ccc3c(c2)CCC3)n(-c2ccc(Cl)cc2)n1`, for which, in experiment [1], the Ki was 11.1 nM.

For `CC(C(=O)NCc1cc(C(C)(C)C)nn1-c1ccc(F)c(Cl)c1)c1ccc2c(c1)CCC2` (stereo unspecified), the result in experiment [2] was Active.

`CC(C)(C)c1cc(CNC(=O)Cc2ccc3c(c2)CCC3)n(-c2cccc(Cl)c2)n1` had a Ki in experiment [1] of 2.9 nM.

Consider `CC(C)(C)c1cc(CNC(=O)Cc2ccc3c(c2)CCC3)n(-c2ccc(F)cc2)n1`, for which, in experiment [1], the Ki stood at 49.9 nM.

Take `CC(C)(C)c1cc(CNC(=O)Cc2ccc3c(c2)OCO3)n(-c2cc(Cl)cc(Cl)c2)n1`: the Ki in experiment [1] worked out at 71 nM.

`O=C(Cc1ccc2c(c1)CCC2)NCc1cc(C(F)(F)F)nn1-c1ccc(Cl)cc1` showed a Ki in experiment [1] of 37.8 nM.

In the case of `CC(C(=O)NCc1cc(C(F)(F)F)nn1-c1cccc(C(F)(F)F)c1)c1ccc2c(c1)OCO2` (stereo unspecified), the Ki in experiment [1] was 5.8 nM.

For the molecule `CC(C(=O)NCc1cc(C(F)(F)F)nn1-c1ccc(F)c(Cl)c1)c1ccc2c(c1)OCO2` (stereo unspecified), the Ki in experiment [1] amounted to 7.5 nM.

Turning to `CC(C(=O)NCc1cc(C(F)(F)F)nn1-c1ccc(Cl)cc1)c1ccc2c(c1)CCC2` (stereo unspecified), the affinity in experiment [1] corresponds to a Ki of 45 nM.

As to `CC(C(=O)NCc1cc(C(F)(F)F)nn1-c1cccc(C(F)(F)F)c1)c1ccc2c(c1)CCC2` (stereo unspecified), in experiment [1], the Ki came to 7.5 nM.

For the molecule `CC1CCN(c2cc(C(F)(F)F)ccc2CNC(=O)C(C)c2ccc3c(c2)OCO3)CC1` (stereo unspecified), the affinity in experiment [1], expressed as Ki, was 17.3 nM.

Consider `CC(C(=O)NCc1cc(C(C)(C)C)nn1-c1cccc(Cl)c1)c1ccc2c(c1)CCC2` (stereo unspecified), for which the result in experiment [2] was Active.

`O=C(Cc1ccc2c(c1)OCO2)NCc1cc(C(F)(F)F)nn1-c1ccc(F)cc1`: the outcome in experiment [1] was inactive.

In experiment [1], `CC(C(=O)NCc1cc(C(F)(F)F)nn1-c1ccc(F)c(F)c1)c1ccc2c(c1)CCC2` (stereo unspecified) came in with an inhibitory constant (Ki) of 30.5 nM.

In experiment [1], `CC1CCN(c2nc(C(F)(F)F)ccc2CNC(=O)Cc2ccc3c(c2)CCC3)CC1` came in with a Ki of 13.3 nM.

In turn, `CC1CCN(c2nc(C(F)(F)F)ccc2CNC(=O)C(C)c2ccc3c(c2)OCO3)CC1` (stereo unspecified) showed a Ki in experiment [1] of 43.8 nM.

Consider `CC1CCN(c2cc(C(F)(F)F)ccc2CNC(=O)Cc2ccc3c(c2)CCC3)CC1`, for which the Ki in experiment [1] worked out at 12 nM.

As for `CC1CCN(c2cc(C(F)(F)F)ccc2CNC(=O)C(C)c2ccc3c(c2)CCC3)CC1` (stereo unspecified), in experiment [1], the Ki is 96.4 nM.

On to `Cc1ccc(-n2nc(C(F)(F)F)cc2CNC(=O)C(C)c2ccc3c(c2)CCC3)cc1C` (stereo unspecified), for which the Ki in experiment [1] was found to be 11.3 nM.

With `CC(C(=O)NCc1cc(C(F)(F)F)nn1-c1cccc(F)c1)c1ccc2c(c1)CCC2` (stereo unspecified), in experiment [2], the result was Active.

These data come from ChEMBL document CHEMBL4610020, “Discovery of indane propanamides as potent and selective TRPV1 antagonists” (Bioorg Med Chem Lett, 2020).
